Laboratory results taken from patent US8034778B2, “Neuroprotective compounds and uses thereof” (Ever Neuro Pharma GmbH, priority 2006, dated 2011).
Read-outs that look alike come from different tables or passages of the source. Residues, ends and D or L forms follow the SMILES beside them. No end group written: not given here.

Tested on: telencephalon neurons from 9-day-old chicken embryos (cortical neurons)
Assay type: cell-based
Protocol: 1.1.2. Assay Conditions: • Assay: 2% low serum cell culture assay • Cell source: telencephalon neurons from 9-day-old chicken embryos (Lohman Brown hybrid) • Nutrition medium: EMEM with 1 g glucose/l, 2% FCS, 0.01% gentamycin sulfate and 2 mM L-glutamine • Group size: 4 independent experiments were performed (n =8 for DLHW (SEQ ID NO:2), NIVTPR (SEQ ID NO:3), HGFLPR (SEQ ID NO:4), NMVPFPR (SEQ ID NO:5) and the test matrix) • Evaluation of the effects: • MTT viability assay; absorbance (OD) measured with a plate reader • Duration of one single experiment: • 8 days
(§1) 2.2.1.1. Test Item (DLHW) (SEQ ID NO:2): • Vehicle for dilution: test matrix (6.18 mg/ml NaCl and 0.35 mg/ml KCl) • Application mode: once at the 1st day • Application period: for the whole experiment, i.e. 8 days, from 1st day onwards • Concentrations: 5.6, 11.25, 22.5, 45, 90, 180, 360 and 720 μg/ml • Administration volume: 0.625, 1.25, 2.5, 5, 10, 20, 40, 80 μl/ml medium
as §1, with “2.2.1.2.” for “2.2.1.1.”, “(NIVTPR)” for “(DLHW)”, “NO:3):” for “NO:2):”
as §1, with “2.2.1.3.” for “2.2.1.1.”, “(HGFLPR)” for “(DLHW)”, “NO:4):” for “NO:2):”
as §1, with “2.2.1.4.” for “2.2.1.1.”, “(NMPFPR)” for “(DLHW)”, “NO:5):” for “NO:2):”
2.3. Assay Conditions • Cell culture assays: 2% low serum assay • Cell source: telencephalon neurons from 9-day-old chicken embryos (Lohman Brown hybrid) • Nutrition medium: EMEM with 1 g glucose/l, 2% FCS, 0.01% gentamycin sulfate and 2mM L-glutamine • Group size: 4 independent experiments were performed (n =8for DLHW (SEQ ID NO:2) ant and the test matrix; n =224 for controls) • Evaluation of the effects: MTT viability assay; absorbance (OD) measured with a plate reader • Duration of one single experiment: 8 days
The analytical procedure used in the present example is a 2% low serum assay using isolated avian cortical neurons. With this in vitro cell culture assay the neuroprotective and/or neurotrophic potential of compounds can be evaluated by determining the viability of living neurons after a distinct time period in culture. The method for measuring the amount of viable neurons is the MTT-assay.
To the isolated nerve cells the peptides or test matrix were added once, i.e. at the first day. The 8 concentrations comprising dose range was between 5.6, 11.25, 22.5, 45, 90, 180, 360 and 720 μg/ml medium; the volumes applied were 0.625, 1.25, 2.5, 5, 10, 20, 40, 80 μl/ml medium.
Neuronal viability of cultures was determined with the MTT-assay using a plate-reader (570 nm). The MTT-assay is a sensitive assay measuring the mitochondrial dehydrogenase activity in viable cells only. It is performed according to the method described by Mosmann, J. Immunol. Meth, 1983, 55-63. This assay is based on the reduction of yellow MTT (3-(4,5-dimethylthiazol-2-yl)-2,5,diphenyl tetrazolium bromide), to dark blue formazan crystals by mitochondrial dehydrogenases (succinate dehydrogenase). Since this reaction is catalysed in living cells only the assay can be used for the quantification of cell viability. […]

[1] = 5.6 μg/ml, added at 1DIV, 8 days
[2] = 11.25 μg/ml, added at 1DIV, 8 days
[3] = 22.5 μg/ml, added at 1DIV, 8 days
[4] = 45 μg/ml, added at 1DIV, 8 days
[5] = 90 μg/ml, added at 1DIV, 8 days
[6] = 180 μg/ml, added at 1DIV, 8 days
[7] = 360 μg/ml, added at 1DIV, 8 days
[8] = 720 μg/ml, added at 1DIV, 8 days
[9] = Lohman Brown hybrid, chicken, 8 days, 5.6 μg/ml
[10] = Lohman Brown hybrid, chicken, 8 days, 11.25 μg/ml
[11] = Lohman Brown hybrid, chicken, 8 days, 22.5 μg/ml
[12] = Lohman Brown hybrid, chicken, 8 days, 45 μg/ml
[13] = Lohman Brown hybrid, chicken, 8 days, 90 μg/ml
[14] = Lohman Brown hybrid, chicken, 8 days, 180 μg/ml
[15] = Lohman Brown hybrid, chicken, 8 days, 360 μg/ml
[16] = Lohman Brown hybrid, chicken, 8 days, 720 μg/ml

Compound | viability of cortical neurons, MTT, mean optical density (OD) [1] [OD] | viability of cortical neurons, MTT, mean optical density (OD) [2] [OD] | viability of cortical neurons, MTT, mean optical density (OD) [3] [OD] | viability of cortical neurons, MTT, mean optical density (OD) [4] [OD] | viability of cortical neurons, MTT, mean optical density (OD) [5] [OD] | viability of cortical neurons, MTT, mean optical density (OD) [6] [OD] | viability of cortical neurons, MTT, mean optical density (OD) [7] [OD] | viability of cortical neurons, MTT, mean optical density (OD) [8] [OD] | viability of cortical neurons, mean in % (control is 100%) [9] [%] | viability of cortical neurons, mean in % (control is 100%) [10] [%] | viability of cortical neurons, mean in % (control is 100%) [11] [%] | viability of cortical neurons, mean in % (control is 100%) [12] [%] | viability of cortical neurons, mean in % (control is 100%) [13] [%] | viability of cortical neurons, mean in % (control is 100%) [14] [%] | viability of cortical neurons, mean in % (control is 100%) [15] [%] | viability of cortical neurons, mean in % (control is 100%) [16] [%] | further results
CC(C)C[C@H](NC(=O)[C@@H](N)CC(=O)O)C(=O)N[C@@H](Cc1c[nH]cn1)C(=O)N[C@@H](Cc1c[nH]c2ccccc12)C(=O)O [DLHW] (H-DLHW-OH; N-terminus and C-terminus assumed) | 0.062 | 0.062 | 0.085 | 0.136 | 0.217 | 0.272 | 0.254 | 0.257 | 97.85 | 97.68 | 134.51 | 213.12 | 341.82 | 429.54 | 401.23 | 406.75 | maximum effect (viability, control 100%) [15]: 430%; effect beyond control (added at 1DIV, MTT method): 430%; effective dose range (added at 1DIV, MTT method): 45 to 702 µg/mL; maximum effect in % (added at 1DIV, MTT method): 430%; most effectice concentration (added at 1DIV, MTT method): 180 µg/mL; effect above the control level (in higher concentrations (than that of the maximum effect)): ~300%
NMVPFPR [NMVPFPR] | 0.061 | 0.060 | 0.057 | 0.057 | 0.056 | 0.055 | 0.055 | 0.057 | 98.06 | 95.77 | 90.76 | 90.55 | 89.54 | 87.76 | 87.79 | 91.24 | 
NIVTPR [NIVTPR] | 0.068 | 0.069 | 0.068 | 0.068 | 0.066 | 0.064 | 0.060 | 0.058 | 98.92 | 100.32 | 98.70 | 98.75 | 95.12 | 92.28 | 86.60 | 83.13 | 
HGFLPR [HGFLPR] | 0.068 | 0.069 | 0.069 | 0.067 | 0.070 | 0.067 | 0.064 | 0.058 | 100.07 | 101.16 | 101.16 | 98.95 | 102.25 | 99.14 | 94.53 | 85.71 | 
